Tested on: HIF2a and GLUT1
Assay: Immunoblot of retinas from B6 mice orally fed VH298 for 3 days
Type: in vivo
Settings: 6-week old B6 mice, oral, VH298 in oil 10, 20, or 50 mg/kg, retinas collected 4 hours after last feeding, vs oil only control
Method: 6-week old B6 mice were orally fed for 3 days with VH298 in oil (10, 20, or 50 mg/kg) or oil only for the control group. Each group contained 3 mice. 4 hours after the last feeding, mice retinas were collected and processed immediately for immunoblot. Protein levels of HIF2a, and Glut1 were shown. B-actin was used as loading control.
6-week old B6 mice were orally fed for 3 days with VH298 in oil (10, 20, or 50 mg/kg) or oil only for the control group. Each group contained 3 mice. 4 hours after the last feeding, mice retinas were collected and processed immediately for immunoblot.

## Cc1ncsc1-c1ccc(CNC(=O)[C@@H]2C[C@@H](O)CN2C(=O)[C@@H](NC(=O)C2(C#N)CC2)C(C)(C)C)cc1 [VH298, (2S,4R)-1-((S)-2-(1-cyanocyclopropanecarboxamido)-3,3-dimethylbutanoyl)-4-hydroxy-N-(4-(4-methylthiazol-5-yl)benzyl)pyrrolidine-2-carboxamide]
  Protein level of GLUT1 in retina (immunoblot): dose-dependent increase
  Protein level of HIF2a in retina (immunoblot): dose-dependent increase

From US20200172927A1, “REP[…] […] FOR TREATMENT OF NEURODEGENERATION” (The Trustees of Columbia University in the City of New York, priority 2017, published 2020)
